Patent US20220081470A1, “THIAZOLYL PEPTIDES FOR THE TREATMENT NONTUBERCULOUS MYCOBACTERIAL INFECTIONS” (priority 2019, published 2022)
≈ marks a conversion by molar mass, not a printed value. Where two headings read alike, the source gives them in different places.

Legend:
Mycobacterium abscessus [1] = experiment: MIC by broth dilution (CLSI M24), resazurin readout; type: cell-based; conditions: Mycobacteroides abscessus; M.abscessess
Mycobacterium abscessus [2] = experiment: Minimum Bactericidal Concentration (MBC); type: cell-based; conditions: Mycobacteroides abscessus; M.abscessess
[3] = test system: M. abscessus in THP-1 macrophages; experiment: Intracellular efficacy in THP-1 macrophages; type: cell-based, Mycobacterium abscessus; conditions: M.abscessess in THP-1 macrophages
Method: (§1) To test drug efficacy against slow or non-replicating bacilli in the intracellular compartment, THP-1 cells were grown in RPMI medium supplemented with […] sodium pyruvate, 200 mM L-glutamine, 3.7 g of sodium bicarbonate (Sigma) per litre, and 10% foetal calf serum (Gibco-BRL Life Technologies) without any antibiotics. The macrophages were seeded in 96-well plates at a density of approximately 5×10^5 cells/flask, incubated overnight, and were induced by 50 nM phorbol 12-myristate 13-acetate (PMA) to achieve macrophage differentiated phenotypesat 37° C./48-72 hr/5% CO2 atmosphere. After 48 hr of activation, the THP-1 macrophages were infected with respective NTM strains at a multiplicity of infection (MOI) of 1:10/2 h at 37° C. with 5% CO2. The macrophage monolayers were washed twice with […] of phosphate-buffered saline (+Ca^2++Mg^2+) to remove the free bacteria. Sets of triplicate wells were lysed (0.05% SDS) at specific timepoints, and enumerated to estimate the numbers of intracellular NTM 2 h post-infection.
(§2) The residual intracellular viable mycobacteria were enumerated at 0, 3, 5, and 7 day on Middlebrook 7H11 agar plates. […] Inhibitory sigmoidal curves were generated by plotting the log10 cfu/ml against the Cbroth/MIC ratio and the AUC/MIC ratio.

Mycobacterium avium [4] = experiment: MIC by broth dilution (CLSI M24), resazurin readout; type: cell-based; conditions: M.avium
Mycobacterium avium [5] = experiment: Minimum Bactericidal Concentration (MBC); type: cell-based; conditions: M.avium
[6] = test system: M. avium in THP-1 macrophages; experiment: Intracellular efficacy in THP-1 macrophages; type: cell-based, Mycobacterium avium
Method: as §1, §2

Mycobacterium fortuitum [7] = experiment: MIC by broth dilution (CLSI M24), resazurin readout; type: cell-based; conditions: Mycolicibacterium fortuitum; M.fortuitum
Mycobacterium fortuitum [8] = experiment: Minimum Bactericidal Concentration (MBC); type: cell-based; conditions: Mycolicibacterium fortuitum; M.fortuitum
[9] = test system: M. fortuitum in THP-1 macrophages; experiment: Intracellular efficacy in THP-1 macrophages; type: cell-based, Mycobacterium fortuitum
Method: as §1, §2

Mycobacterium gordonae [10] = experiment: MIC by broth dilution (CLSI M24), resazurin readout; type: cell-based; conditions: M.gordonae
Mycobacterium gordonae [11] = experiment: Minimum Bactericidal Concentration (MBC); type: cell-based; conditions: M.gordonae
[12] = test system: M. gordonae in THP-1 macrophages; experiment: Intracellular efficacy in THP-1 macrophages; type: cell-based, Mycobacterium gordonae
Method: as §1, §2

[13] = test system: Mycobacterium intracellulare; experiment: MIC by broth dilution (CLSI M24), resazurin readout; type: cell-based; conditions: M.intracellulare
[14] = test system: Mycobacterium intracellulare; experiment: Minimum Bactericidal Concentration (MBC); type: cell-based; conditions: M.intracellulare
[15] = test system: M. intracellulare in THP-1 macrophages; experiment: Intracellular efficacy in THP-1 macrophages; type: cell-based, Mycobacterium intracellulare
Method: as §1, §2

Mycobacterium kansasii [16] = experiment: MIC by broth dilution (CLSI M24), resazurin readout; type: cell-based; conditions: M.kansasii
Mycobacterium kansasii [17] = experiment: Minimum Bactericidal Concentration (MBC); type: cell-based; conditions: M.kansasii
[18] = test system: M. kansasii in THP-1 macrophages; experiment: Intracellular efficacy in THP-1 macrophages; type: cell-based, Mycobacterium kansasii
Method: as §1, §2

[19] = test system: Mycobacterium nonchromogenicum; experiment: MIC by broth dilution (CLSI M24), resazurin readout; type: cell-based; conditions: Mycolicibacter nonchromogenicus
[20] = test system: Mycobacterium nonchromogenicum; experiment: Minimum Bactericidal Concentration (MBC); type: cell-based; conditions: Mycolicibacter nonchromogenicus
[21] = test system: M. nonchromogenicum in THP-1 macrophages; experiment: Intracellular efficacy in THP-1 macrophages; type: cell-based, Mycobacterium nonchromogenicum
Method: as §1, §2

M. avium = experiment: In vitro drug combination study, checkerboard method; type: cell-based, Mycobacterium avium; conditions: for MIC: Mycobacterium avium, 144 h, drug alone, checkerboard, read-out: Individual MIC; for FIC index / Outcome: in combination with PM181108A
M. gordonae = experiment: as above; type: cell-based, Mycobacterium gordonae; conditions: for MIC: Mycobacterium gordonae, 144 h, drug alone, checkerboard, read-out: Individual MIC; for FIC index / Outcome: in combination with PM181108A
[22] = M.nonchromogenicum, read-out: MIC
[23] = M.nonchromogenicum, read-out: MBC

SMILES | MIC (Mycobacterium abscessus [1]) [µg/mL] | MBC (Mycobacterium abscessus [2]) [µg/mL] | IC Emax (intracellular efficacy) [3] [log10 cfu/ml] | MIC (Mycobacterium avium [4]) [µg/mL] | MBC (Mycobacterium avium [5]) [µg/mL] | IC Emax (intracellular efficacy) [6] [log10 cfu/ml] | MIC (Mycobacterium fortuitum [7]) [µg/mL] | MBC (Mycobacterium fortuitum [8]) [µg/mL] | IC Emax (intracellular efficacy) [9] [log10 cfu/ml] | MIC (Mycobacterium gordonae [10]) [µg/mL] | MBC (Mycobacterium gordonae [11]) [µg/mL] | IC Emax (intracellular efficacy) [12] [log10 cfu/ml] | MIC [13] [µg/mL] | MBC [14] [µg/mL] | IC Emax (intracellular efficacy) [15] [log10 cfu/ml] | MIC (Mycobacterium kansasii [16]) [µg/mL] | MBC (Mycobacterium kansasii [17]) [µg/mL] | IC Emax (intracellular efficacy) [18] [log10 cfu/ml] | IC Emax (intracellular efficacy) [21] [log10 cfu/ml] | MIC [19] [µg/mL] | other results
C=C(NC(=O)C(=C)NC(=O)c1csc(C2=N[C@@H]3c4csc(n4)[C@H]4NC(=O)c5csc(n5)[C@H]([C@](C)(O)[C@@H](C)O)NC(=O)[C@H]5CSC(=N5)/C(=C/C)NC(=O)[C@H]([C@@H](C)O)NC(=O)c5csc(n5)[C@]3(CC2)NC(=O)[C@H](C)NC(=O)C(=C)NC(=O)[C@H](C)NC(=O)[C@H]([C@@H](C)CC)N[C@@H]2C=Cc3c([C@H](C)O)cc(nc3[C@H]2O)C(=O)O[C@@H]4C)n1)C(N)=O [Thiostrepton] | 0.5 (≈ 0.3 µM) | 32 (≈ 19.2 µM) | 0.00 | 1 (≈ 0.601 µM) | 2 (≈ 1.2 µM) | 1.19 | 2 (≈ 1.2 µM) | > 32 | 0.00 | 0.5 (≈ 0.3 µM) | 2 (≈ 1.2 µM) | 0.72 | 0.13 (≈ 0.0781 µM) | 1 (≈ 0.601 µM) | 0.67 | 1 (≈ 0.601 µM) | 16 (≈ 9.61 µM) | 1.56 | 0.49 |  | MIC [19, 22]: 0.5 µg/mL (≈ 0.3 µM); MBC [20, 23]: 16 µg/mL (≈ 9.61 µM)
COc1c(N2C[C@@H]3CCCN[C@@H]3C2)c(F)cc2c(=O)c(C(=O)O)cn(C3CC3)c12 [Moxifloxacin] | 2 (≈ 4.98 µM) | 4 (≈ 9.96 µM) | 1.00 | 4 (≈ 9.96 µM) | 8 (≈ 19.9 µM) | 1.00 | < 0.06 | 0.25 (≈ 0.623 µM) | 1.60 | 2 (≈ 4.98 µM) | 4 (≈ 9.96 µM) | 1.23 | 0.5 (≈ 1.25 µM) | 1 (≈ 2.49 µM) | 1.46 | 2 (≈ 4.98 µM) | 8 (≈ 19.9 µM) | 1.93 | 0.34 | 2 (≈ 4.98 µM) | MBC [20]: 16 µg/mL (≈ 39.9 µM)
NCC[C@H](O)C(=O)N[C@@H]1C[C@H](N)[C@@H](O[C@H]2O[C@H](CN)[C@@H](O)[C@H](O)[C@H]2O)[C@H](O)[C@H]1O[C@H]1O[C@H](CO)[C@@H](O)[C@H](N)[C@H]1O [Amikacin] | 4 (≈ 6.83 µM) | 16 (≈ 27.3 µM) |  | 2 (≈ 3.42 µM) | 8 (≈ 13.7 µM) |  | 2 (≈ 3.42 µM) | 2 (≈ 3.42 µM) |  | 2 (≈ 3.42 µM) | 8 (≈ 13.7 µM) |  | 1 (≈ 1.71 µM) | 2 (≈ 3.42 µM) |  | 4 (≈ 6.83 µM) | 16 (≈ 27.3 µM) |  |  | 2 (≈ 3.42 µM) | MBC [20]: 8 µg/mL (≈ 13.7 µM); MIC (M. avium): 4 µg/mL; FIC index (M. avium): 0.80; Outcome (M. avium): Additive (>0.5-4.0, addition or indifference); MIC (M. gordonae): 4 µg/mL; FIC index (M. gordonae): 0.90; Outcome (M. gordonae): Additive (>0.5-4.0, addition or indifference)
CO[C@H]1/C=C/O[C@@]2(C)Oc3c(C)c(O)c4c(O)c(c(/C=N/N5CCN(C)CC5)c(O)c4c3C2=O)NC(=O)/C(C)=C\C=C\[C@H](C)[C@H](O)[C@@H](C)[C@@H](O)[C@@H](C)[C@H](OC(C)=O)[C@@H]1C [Rifampicin] | 16 (≈ 19.4 µM) | 32 (≈ 38.9 µM) | 0.00 | 0.25 (≈ 0.304 µM) | 1 (≈ 1.22 µM) | 1.04 | 4 (≈ 4.86 µM) | > 32 | 0.00 | 0.25 (≈ 0.304 µM) | 8 (≈ 9.72 µM) | 1.36 | 0.06 (≈ 0.0729 µM) | 0.25 (≈ 0.304 µM) | 0.44 | 0.13 (≈ 0.158 µM) | 16 (≈ 19.4 µM) |  | 0.82 |  | MIC [19, 22]: 0.13 µg/mL (≈ 0.158 µM); MBC [20, 23]: 32 µg/mL (≈ 38.9 µM); MIC (M. avium): 0.5 µg/mL; Outcome (M. avium): Additive (>0.5-4.0, addition or indifference); MIC (M. gordonae): 0.5 µg/mL; Outcome (M. gordonae): Synergy (≤0.5, synergism)
CC[C@H]1OC(=O)[C@H](C)[C@@H](O[C@H]2C[C@@](C)(OC)[C@@H](O)[C@H](C)O2)[C@H](C)[C@@H](O[C@@H]2O[C@H](C)C[C@H](N(C)C)[C@H]2O)[C@](C)(OC)C[C@@H](C)C(=O)[C@H](C)[C@@H](O)[C@]1(C)O [Clarithromycin] | 2 (≈ 2.67 µM) | 32 (≈ 42.8 µM) | 0.70 | 0.5 (≈ 0.668 µM) | 2 (≈ 2.67 µM) | 1.00 | 32 (≈ 42.8 µM) | > 32 | 0.35 | 0.5 (≈ 0.668 µM) | 1 (≈ 1.34 µM) | 1.26 | 0.13 (≈ 0.174 µM) | 0.5 (≈ 0.668 µM) | 1.78 | 0.5 (≈ 0.668 µM) | 2 (≈ 2.67 µM) | 0.91 | 0.82 | 0.25 (≈ 0.334 µM) | MBC [20]: 4 µg/mL (≈ 5.35 µM); MIC (M. avium): 1 µg/mL; FIC index (M. avium): 0.46; Outcome (M. avium): Synergy (≤0.5, synergism); MIC (M. gordonae): 1 µg/mL; FIC index (M. gordonae): 0.46; Outcome (M. gordonae): Synergy (≤0.5, synergism)
